Source: US20090069319A1, “IMIDAZOPYRIDINE ANALOGS AND THEIR USE AS AGONISTS OF THE WNT-BETA-CATENIN CELLULAR MESSAGING SYSTEM” (Wyeth, priority 2007, published 2009)

Assay: Functional Dkk1-LRP5-TCF-Luciferase Assay in U2OS Cells (table columns: A=MAX FOLD Induction/DMSO CONTROL; B=fold induction @ 2.0 uM; C=fold induction @ 20.0 uM)
Format: cell-based, Human
Settings: Homo sapiens, U2OS; 2.0 uM compound
Procedure: Biological Evaluation—Functional Dkk1-LRP5-TCF-Luciferase Assay in U2OS Cells
U2OS Human Bone derived cells (Osteosarcoma) are grown in McCoy's 5A Medium (Modified), with L-glutamine (GIBCO Cat No. 16600-082)+1% Pen-Strep+5% FBS) plated at 1×10^7 cells/T175 cm flask. The next day, the cells are co-transfected overnight with the following plasmids: (a) Test reporter (16×TCF-TK-FireFly-Luci), (b) Internal Control Reporter (TK-Renilla-Luci), (c) Wnt3a and (d) Dkk1. GIBCO's Lipofectamine 2000 and OptiMEM were used for the transfection. After a minimum of 4 hr of transfection at 37° C., the plasmid-transfected cells are trypsinized, counted, and suspended in freezing medium (95% FBS+5% DMSO). The reporter cells are frozen at 1×10^7/ml concentrations, aliquoted into 0.5 ml or 2.5 ml/tube and stored at −70° C.
The following day, test compounds are added under HTS setup by Plate Track into 384 well plates (white, TC treated, Falcon plate) such that the final concentration of the compounds in 20 μL/well cell will be 5 μg/ml (final concentration of DMSO=0.25% and final compound concentration=20 μM). Vials of frozen reporter cells are thawed by warming the vial in a 37° C. water bath for 60-120 seconds with some shaking until the cells formed a suspension. The thawed cells are transferred into a cold 50 ml (or larger) tube and mixed well by gentle pipetting. The appropriate amount of cold Phenol Red Free RPMI medium-1640 (GIBCO, Cat # 11835-030) with L-glutamine is added, both with ˜5% FBS (GIBCO-BRL, Cat. # 16000-044), so that 20 μl of the final cell suspension will contain ˜5,000 cells. The cell dilution is done such that the final concentration of FBS was ˜5%. Diluted cells (20 μl) are added into each well in a 384 well plate. The plate is incubated at 37° C. under 5% CO2 for ˜20 h. Bright-Glo substrate, 2.5 μl/well is added, and the Fire Fly Luciferase is measured using VLUX (60 second exposure) immediately after the substrate was added. Test compounds are dissolved in DMSO (100%) and added to specified wells. Raw luciferase signal data obtained as relative luminescence units (RLUs) for the test compounds are normalized to the signal of the mean of the sample reporter cell plate with DMSO.
Active compounds have TCF-luciferase ratios of 2.5 fold or greater over DMSO. All compounds show a signal increase of at least 10% compared to a signal with only DMSO added.
A=MAX FOLD Induction/DMSO CONTROL
B=TCF ACTIVITY/DMSO CONTROL Fold induction @ 2.0 uM C=TCF ACTIVITY/DMSO CONTROL Fold induction @ 20.0 uM
In the case of `Cn1c(=O)n(C2CCN(S(C)(=O)=O)CC2)c2nccc(-c3ccc4ccccc4c3)c21` [1-methyl-3-[1-(methylsulfonyl)piperidin-4-yl]-7-(2-naphthyl)-1,3-dihydro-2H-imidazo[4,5-b]pyridin-2-one], the fold induction at 2 µM is reported as 1.52.
`Cn1c(=O)n(C2CCN(C(=O)N3CCOCC3)CC2)c2nccc(-c3ccc4ccccc4c3)c21` [1-methyl-3-[1-(morpholin-4-ylcarbonyl)piperidin-4-yl]-7-(2-naphthyl)-1,3-dihydro-2H-imidazo[4,5-b]pyridin-2-one] showed a fold induction at 2 µM of 1.29.
`Cn1c(=O)n(C2CCNCC2)c2nccc(-c3ccc4ccccc4c3)c21` [1-methyl-7-(2-naphthyl)-3-piperidin-4-yl-1,3-dihydro-2H-imidazo[4,5-b]pyridin-2-one] gave a fold induction at 2 µM of 1.07.
Compound `c1ccc2cc(-c3cnc4c(c3)nc(-c3ccc5ccccc5c3)n4C3CCNCC3)ccc2c1` [2,6-di-2-naphthyl-3-piperidin-4-yl-3H-imidazo[4,5-b]pyridine] has a fold induction at 2 µM of 1.06.
Compound `c1ccc2cc(-c3ccnc4c3nc(-c3ccc5ccccc5c3)n4C3CCNCC3)ccc2c1` [2,7-di-2-naphthyl-3-piperidin-4-yl-3H-imidazo[4,5-b]pyridine] has a fold induction at 2 µM of 1.02.
For `c1ccc2cc(-c3ccnc4c3nc(-c3ccc5c(c3)OCO5)n4C3CCNCC3)ccc2c1` [2-(1,3-benzodioxol-5-yl)-7-(2-naphthyl)-3-piperidin-4-yl-3H-imidazo[4,5-b]pyridine], the fold induction at 2 µM was 1.36.
Work on `CC(=O)n1cc(-c2nc3c(-c4ccc5ccccc5c4)ccnc3n2C2CCNCC2)c2ccccc21` [2-(1-acetyl-1H-indol-3-yl)-7-(2-naphthyl)-3-piperidin-4-yl-3H-imidazo[4,5-b]pyridine] yielded a fold induction at 2 µM of 1.48.
For `c1ccc2cc(-c3cnc4c(c3)nc(-c3cc5ccccc5o3)n4C3CCNCC3)ccc2c1` [2-(1-benzofuran-2-yl)-6-(2-naphthyl)-3-piperidin-4-yl-3H-imidazo[4,5-b]pyridine], the fold induction at 2 µM was 1.
Compound `c1ccc2cc(-c3ccnc4c3nc(-c3cc5ccccc5o3)n4C3CCNCC3)ccc2c1` [2-(1-benzofuran-2-yl)-7-(2-naphthyl)-3-piperidin-4-yl-3H-imidazo[4,5-b]pyridine] has a fold induction at 2 µM of 1.53.
In the case of `c1ccc2cc(-c3cnc4c(c3)nc(-c3ccc5occc5c3)n4C3CCNCC3)ccc2c1` [2-(1-benzofuran-5-yl)-6-(2-naphthyl)-3-piperidin-4-yl-3H-imidazo[4,5-b]pyridine], the fold induction at 2 µM is reported as 0.98.
For `c1ccc2cc(-c3ccnc4c3nc(-c3ccc5occc5c3)n4C3CCNCC3)ccc2c1` [2-(1-benzofuran-5-yl)-7-(2-naphthyl)-3-piperidin-4-yl-3H-imidazo[4,5-b]pyridine], the fold induction at 2 µM was 0.9.
`c1ccc2cc(-c3cnc4c(c3)nc(-c3cc5ccccc5s3)n4C3CCNCC3)ccc2c1` [2-(1-benzothien-2-yl)-6-(2-naphthyl)-3-piperidin-4-yl-3H-imidazo[4,5-b]pyridine] showed a fold induction at 2 µM of 0.92.
With `c1ccc2cc(-c3ccnc4c3nc(-c3cc5ccccc5s3)n4C3CCNCC3)ccc2c1` [2-(1-benzothien-2-yl)-7-(2-naphthyl)-3-piperidin-4-yl-3H-imidazo[4,5-b]pyridine] the fold induction at 2 µM was 1.02.
In the case of `c1ccc2cc(-c3ccnc4c3nc(-c3csc5ccccc35)n4C3CCNCC3)ccc2c1` [2-(1-benzothien-3-yl)-7-(2-naphthyl)-3-piperidin-4-yl-3H-imidazo[4,5-b]pyridine], the fold induction at 2 µM is reported as 1.28.
`CCn1cnc(-c2nc3c(-c4ccc5ccccc5c4)ccnc3n2C2CCNCC2)c1C` [2-(1-ethyl-5-methyl-1H-imidazol-4-yl)-7-(2-naphthyl)-3-piperidin-4-yl-3H-imidazo[4,5-b]pyridine] gave a fold induction at 2 µM of 1.88.
With `Cn1ccnc1-c1nc2c(-c3ccc4ccccc4c3)ccnc2n1C1CCNCC1` [2-(1-methyl-1H-imidazol-2-yl)-7-(2-naphthyl)-3-piperidin-4-yl-3H-imidazo[4,5-b]pyridine] the fold induction at 2 µM was 1.84.
`Cn1c(-c2nc3cc(-c4ccc5ccccc5c4)cnc3n2C2CCNCC2)cc2ccccc21` [2-(1-methyl-1H-indol-2-yl)-6-(2-naphthyl)-3-piperidin-4-yl-3H-imidazo[4,5-b]pyridine] gave a fold induction at 2 µM of 1.05.
In the case of `Cn1c(-c2nc3c(-c4ccc5ccccc5c4)ccnc3n2C2CCNCC2)cc2ccccc21` [2-(1-methyl-1H-indol-2-yl)-7-(2-naphthyl)-3-piperidin-4-yl-3H-imidazo[4,5-b]pyridine], the fold induction at 2 µM is reported as 1.17.
`Cn1cc(-c2nc3cc(-c4ccc5ccccc5c4)cnc3n2C2CCNCC2)c2ccccc21` [2-(1-methyl-1H-indol-3-yl)-6-(2-naphthyl)-3-piperidin-4-yl-3H-imidazo[4,5-b]pyridine] showed a fold induction at 2 µM of 1.04.
For `Cn1cc(-c2nc3c(-c4ccc5ccccc5c4)ccnc3n2C2CCNCC2)c2ccccc21` [2-(1-methyl-1H-indol-3-yl)-7-(2-naphthyl)-3-piperidin-4-yl-3H-imidazo[4,5-b]pyridine], the fold induction at 2 µM was 1.23.
For `Cn1cccc1-c1nc2c(-c3ccc4ccccc4c3)ccnc2n1C1CCNCC1` [2-(1-methyl-1H-pyrrol-2-yl)-7-(2-naphthyl)-3-piperidin-4-yl-3H-imidazo[4,5-b]pyridine], the fold induction at 2 µM was 1.52.
In the case of `c1ccc2cc(-c3cnc4c(c3)nc(-c3cccc5ccccc35)n4C3CCNCC3)ccc2c1` [2-(1-naphthyl)-6-(2-naphthyl)-3-piperidin-4-yl-3H-imidazo[4,5-b]pyridine], the fold induction at 2 µM is reported as 1.11.
Work on `c1ccc2cc(-c3ccnc4c3nc(-c3cccc5ccccc35)n4C3CCNCC3)ccc2c1` [2-(1-naphthyl)-7-(2-naphthyl)-3-piperidin-4-yl-3H-imidazo[4,5-b]pyridine] yielded a fold induction at 2 µM of 1.39.
In the case of `c1ccc2cc(-c3ccnc4c3nc(-c3ncc[nH]3)n4C3CCNCC3)ccc2c1` [2-(1H-imidazol-2-yl)-7-(2-naphthyl)-3-piperidin-4-yl-3H-imidazo[4,5-b]pyridine], the fold induction at 2 µM is reported as 1.42.
Compound `c1ccc2cc(-c3cnc4c(c3)nc(-c3c[nH]c5ccccc35)n4C3CCNCC3)ccc2c1` [2-(1H-indol-3-yl)-6-(2-naphthyl)-3-piperidin-4-yl-3H-imidazo[4,5-b]pyridine] has a fold induction at 2 µM of 1.11.
For `Fc1cccc(-c2nc3c(-c4ccc5ccccc5c4)ccnc3n2C2CCNCC2)c1F` [2-(2,3-difluorophenyl)-7-(2-naphthyl)-3-piperidin-4-yl-3H-imidazo[4,5-b]pyridine], the fold induction at 2 µM was 1.9.
`c1ccc2cc(-c3ccnc4c3nc(-c3ccc5c(c3)OCCO5)n4C3CCNCC3)ccc2c1` [2-(2,3-dihydro-1,4-benzodioxin-6-yl)-7-(2-naphthyl)-3-piperidin-4-yl-3H-imidazo[4,5-b]pyridine] gave a fold induction at 2 µM of 1.18.
With `Clc1ccc(-c2nc3cc(-c4ccc5ccccc5c4)cnc3n2C2CCNCC2)c(Cl)c1` [2-(2,4-dichlorophenyl)-6-(2-naphthyl)-3-piperidin-4-yl-3H-imidazo[4,5-b]pyridine] the fold induction at 2 µM was 1.04.
With `Clc1ccc(-c2nc3c(-c4ccc5ccccc5c4)ccnc3n2C2CCNCC2)c(Cl)c1` [2-(2,4-dichlorophenyl)-7-(2-naphthyl)-3-piperidin-4-yl-3H-imidazo[4,5-b]pyridine] the fold induction at 2 µM was 1.1.
`Fc1ccc(-c2nc3cc(-c4ccc5ccccc5c4)cnc3n2C2CCNCC2)c(F)c1` [2-(2,4-difluorophenyl)-6-(2-naphthyl)-3-piperidin-4-yl-3H-imidazo[4,5-b]pyridine] showed a fold induction at 2 µM of 1.22.
With `Fc1ccc(-c2nc3c(-c4ccc5ccccc5c4)ccnc3n2C2CCNCC2)c(F)c1` [2-(2,4-difluorophenyl)-7-(2-naphthyl)-3-piperidin-4-yl-3H-imidazo[4,5-b]pyridine] the fold induction at 2 µM was 1.42.
Compound `Cc1ccc(-c2nc3cc(-c4ccc5ccccc5c4)cnc3n2C2CCNCC2)c(C)c1` [2-(2,4-dimethylphenyl)-6-(2-naphthyl)-3-piperidin-4-yl-3H-imidazo[4,5-b]pyridine] has a fold induction at 2 µM of 1.31.
Work on `Cc1ccc(-c2nc3c(-c4ccc5ccccc5c4)ccnc3n2C2CCNCC2)c(C)c1` [2-(2,4-dimethylphenyl)-7-(2-naphthyl)-3-piperidin-4-yl-3H-imidazo[4,5-b]pyridine] yielded a fold induction at 2 µM of 1.3.
In the case of `Fc1cccc(F)c1-c1nc2c(-c3ccc4ccccc4c3)ccnc2n1C1CCNCC1` [2-(2,6-difluorophenyl)-7-(2-naphthyl)-3-piperidin-4-yl-3H-imidazo[4,5-b]pyridine], the fold induction at 2 µM is reported as 1.11.

Same assay, conditions: Homo sapiens, U2OS; 20.0 uM compound
`Cn1c(=O)n(C2CCN(S(C)(=O)=O)CC2)c2nccc(-c3ccc4ccccc4c3)c21` [1-methyl-3-[1-(methylsulfonyl)piperidin-4-yl]-7-(2-naphthyl)-1,3-dihydro-2H-imidazo[4,5-b]pyridin-2-one] showed a fold induction at 20 µM of 0.97.
`Cn1c(=O)n(C2CCN(C(=O)N3CCOCC3)CC2)c2nccc(-c3ccc4ccccc4c3)c21` [1-methyl-3-[1-(morpholin-4-ylcarbonyl)piperidin-4-yl]-7-(2-naphthyl)-1,3-dihydro-2H-imidazo[4,5-b]pyridin-2-one] showed a fold induction at 20 µM of 0.21.
For `c1ccc2cc(-c3ccnc4c3nc(-c3cc5ccccc5o3)n4C3CCNCC3)ccc2c1` [2-(1-benzofuran-2-yl)-7-(2-naphthyl)-3-piperidin-4-yl-3H-imidazo[4,5-b]pyridine], the fold induction at 20 µM was 0.01.
Work on `c1ccc2cc(-c3ccnc4c3nc(-c3ccc5occc5c3)n4C3CCNCC3)ccc2c1` [2-(1-benzofuran-5-yl)-7-(2-naphthyl)-3-piperidin-4-yl-3H-imidazo[4,5-b]pyridine] yielded a fold induction at 20 µM of 1.02.
With `Cn1cccc1-c1nc2c(-c3ccc4ccccc4c3)ccnc2n1C1CCNCC1` [2-(1-methyl-1H-pyrrol-2-yl)-7-(2-naphthyl)-3-piperidin-4-yl-3H-imidazo[4,5-b]pyridine] the fold induction at 20 µM was 0.01.
